14 compounds from publication PMC8904451, “Novel chalcone-derived pyrazoles as potential therapeutic agents for the treatment of non-small cell lung cancer” (Scientific Reports, 2022) can be followed below.

Read-outs that look alike come from different tables or passages of the source.

Test [1] deals with A-549 cells. The test is described as follows: MTT cell viability assay, A-549. The test is classed as cell-based, human. Particulars: 72 h, MTT, read-out: IC50 ± SD, growth inhibition, A-549. The procedure:
All the synthesized chalcone-derived pyrazoles were evaluated for their antiproliferative activity against three human non-small cell lung cancer cell lines: A-549, H226, and H460, and a nonmalignant human embryonic kidney cell line HEK293. Cisplatin and 5-fluorouracil (5-FU) were used as a reference. […] The results of the studies are expressed as the IC50 concentration that inhibits 50% growth of cells. […] Following treatment with PCH-1, the viability of all the tested cancer cell lines decreased in a concentration-dependent manner.
The cell viability assay was performed for A-549, H226, H460, and HEK293 cells after treatment with the test compounds by using the 3-(4,5-dimethylthiazol-2-yl)-2,5-diphenyltetrazolium bromide (MTT, Sigma-Aldrich) assay. Briefly, cells were seeded onto 96-well culture plates for attachment. After 24 h, triplicate wells were treated with DMSO (1%) and the agents. […] After 2–4 h of incubation, the medium was removed, and the formazan crystals were dissolved in 100 μl of DMSO. The absorption was measured at 450 nm with an ASYS UVM340 microplate reader (Biochrom Ltd.). The 50% inhibitory concentration (IC50) was defined as the concentration that reduced the absorbance of the DMSO-treated wells by 50% of the vehicle. The IC50 values were generated from GraphPad Prism 9 software by plotting the survival curve as a function of dose from 3 independent experiments.
For orientation: Tetrazolium dyes change colour on reduction, which living cells bring about.

The subject of the next test is H226 cells. Nature of the test: MTT cell viability assay, H226. Particulars: 72 h, MTT, read-out: IC50 ± SD, growth inhibition, H226. Type of test: cell-based, human. The procedure:
(§1) All the synthesized chalcone-derived pyrazoles were evaluated for their antiproliferative activity against three human non-small cell lung cancer cell lines: A-549, H226, and H460, and a nonmalignant human embryonic kidney cell line HEK293. Cisplatin and 5-fluorouracil (5-FU) were used as a reference. Cells were exposed to a range of PCH concentrations (0.5–100 µM) for 72 h and analyzed by 3-(4,5-dimethylthiazol-2-yl)-2,5-diphenyl-2H-tetrazolium bromide (MTT) assay. The results of the studies are expressed as the IC50 concentration that inhibits 50% growth of cells. […] Following treatment with PCH-1, the viability of all the tested cancer cell lines decreased in a concentration-dependent manner.
(§2) The cell viability assay was performed for A-549, H226, H460, and HEK293 cells after treatment with the test compounds by using the 3-(4,5-dimethylthiazol-2-yl)-2,5-diphenyltetrazolium bromide (MTT, Sigma-Aldrich) assay. Briefly, cells were seeded onto 96-well culture plates for attachment. After 24 h, triplicate wells were treated with DMSO (1%) and the agents. After 72 h of incubation at 37 °C in 5% CO2, the MTT solution (0.4 mg/ml) was added to each well. After 2–4 h of incubation, the medium was removed, and the formazan crystals were dissolved in 100 μl of DMSO. The absorption was measured at 450 nm with an ASYS UVM340 microplate reader (Biochrom Ltd.). The 50% inhibitory concentration (IC50) was defined as the concentration that reduced the absorbance of the DMSO-treated wells by 50% of the vehicle. The IC50 values were generated from GraphPad Prism 9 software by plotting the survival curve as a function of dose from 3 independent experiments.

The test system of a further test is H460 cells. Nature of the test: MTT cell viability assay, H460. The test is classed as cell-based, human. Particulars: 72 h, MTT, read-out: IC50 ± SD, growth inhibition, H460. The procedure: as §1, §2
A further test deals with HEK293 cells. The test is described as follows: MTT cell viability assay, HEK293. The test is classed as cell-based, human. The settings on record: nonmalignant cells, read-out: IC50 ± SD, growth inhibition, HEK293. The procedure:
as §1, §2

Test [2] concerns A-549 cells. Nature of the test: Intracellular ROS measurement (H2DCFDA, flow cytometry). Particulars: A-549, all the tested time points (3, 6, 24 h). The test is classed as cell-based, human. The source says:
The generation of intracellular reactive oxygen species (ROS) causes an imbalance of cellular redox homeostasis, followed by damage of cellular components and cell death. Therefore, compounds with the ability to produce high levels of ROS and/or inhibit antioxidant processes are often used in anticancer therapies. In the present study, the effect of PCH-1 on ROS generation in A-549 cells was investigated by flow cytometry. As an indicator of ROS generation, the fluorescent probe 2ʹ,7ʹ-dichlorodihydrofluorescein diacetate (H2DCFDA) was used, which undergoes oxidation by ROS to form a highly fluorescent compound 2ʹ,7ʹ-dichlorofluorescein (DCF). As shown in Supplementary Fig. S6 in Supplementary Information, compound PCH-1 induced a massive amount of ROS in A-549 cells in a time-dependent manner. […] Moreover, the induction of ROS was equally high for PCH-1 and the reference compound H2O2 in all the tested time points.
For determination the ROS generation, cells were treated with IC90 of PCH-1, H2O2, or 1% DMSO for 3, 6, and 24 h. Next, a 1 µM CM-H2DCFDA (#C6827; Thermo-Fisher) probe was added to the cells in each plate 30 min before the end of the drug treatment. After incubation cells were collected by trypsinization, stained with 7-Aminoactinomycin D (7-AAD, Sigma-Aldrich), and measured. The analysis was performed with Guava EasyCyte 8 cell sorter (Merck Millipore) and FlowJo software v10. Each experiment was repeated independently three times.
A general note: A flow cytometer gives signals particle by particle.

The next test deals with tubulin. The test is described as follows: HTS-tubulin polymerization assay. The settings on record: 120-min kinetic reaction, absorbance 340 nm, vs vehicle. Type of test: biochemical. The procedure: To further evaluate whether the tubulin–microtubule system was the target site of PCH-1, in vitro microtubule polymerization assays were performed using the microtubule protein with Paclitaxel and Vincristine as a reference. Paclitaxel and Vincristine are antimitotic drugs that have been commonly used in conventional chemotherapy for decades. In 1979, it was shown that Paclitaxel accelerates the initiation of tubulin fiber polymerization and stabilizes the formed tubulin fibers in vitro, even in the absence of GTP or MAP in the solution[30]. Vincristine, on the other hand, binds to tubulin and inhibits its polymerization.
The assay was performed according to the manufacturer’s instructions. Briefly, compounds were diluted in DMSO to a concentration of 2 mM and then in GTB buffer to a concentration of 50 µM. In the wells of a 96-well plate (UV transparent, half surface wells) previously heated to 37 °C, 10 µl of dilutions of the test compounds were placed in duplicate. The plate was incubated for 2 min at 37 °C, and 100 µl of freshly prepared tubulin solution (4 mg/ml) in GTB-GTP buffer was then added. The plate was immediately placed in a Tecan SPARK 10 M plate reader, and the reaction kinetics were measured with the following settings: absorbance reading: 340 nm, 37 °C, interval: 45 s, number of cycles: 160.

The IC50 is the midpoint of a concentration-inhibition curve. Take `O=c1[nH]cc(F)c(=O)[nH]1` [5-FU, 5-fluorouracil, reference compound]: the IC50 with A-549 cells [1] (Homo sapiens, A549) stood at 8.12 ± 1.01 µM; with H226 cells (Homo sapiens, NCI-H226), 4.01 ± 0.76 µM; with H460 cells (Homo sapiens, NCI-H460), 4.08 ± 0.43 µM; in the test on HEK293 cells (Homo sapiens, HEK293, 72 h), 11.1 ± 1.53 µM.
For the compound `N.N.[Cl][Pt][Cl]` [Cisplatin, reference compound], the IC50 in the test with A-549 cells [1] is 29.01 ± 0.12 µM; with H226 cells it was 17.5 ± 2.12 µM; with H460 cells, 21.5 ± 1.87 µM; in the test with HEK293 cells (72 h) it was 28.4 ± 1.97 µM.
`COc1cc([C@@H]2c3cc4c(cc3[C@@H](O[C@@H]3O[C@@H]5CO[C@@H](C)O[C@H]5[C@H](O)[C@H]3O)[C@H]3COC(=O)[C@H]23)OCO4)cc(OC)c1O` [Etoposide, reference compound]: the IC50 amounted to 0.54 ± 0.21 µM with A-549 cells [1] (Homo sapiens, A549); 1.03 ± 0.16 µM in the test on H226 cells (Homo sapiens, NCI-H226); 0.05 ± 0.01 µM with H460 cells (Homo sapiens, NCI-H460); 1.91 ± 0.97 µM in the test on HEK293 cells (Homo sapiens, HEK293, 72 h).
Take `OO` [H2O2, reference compound]: the “induction of ROS, reference compared with PCH-1” value in the test with A-549 cells [2] is recorded as “equally high”.
As to `COc1cc(C2=NN(C(C)=O)C(c3ccc4c(c3)OCO4)C2)cc(OC)c1OC` (centres unmarked) [PCH-2, 1-[5-(2H-1,3-benzodioxol-5-yl)-3-(3,4,5-trimethoxyphenyl)-4,5-dihydro-1H-pyrazol-1-yl]ethan-1-one], the IC50 in the test on A-549 cells [1] (Homo sapiens, A549) was above 100 µM; in the test on H226 cells (Homo sapiens, NCI-H226), 40.5 ± 3.52 µM; with H460 cells (Homo sapiens, NCI-H460) it was 43.8 ± 1.12 µM; with HEK293 cells (Homo sapiens, HEK293, 72 h) it was above 100 µM.
As for `CC(=O)N1N=C(c2ccc(C)cc2)CC1c1ccc2c(c1)OCO2` (centres unmarked) [PCH-3, 1-[5-(2H-1,3-benzodioxol-5-yl)-3-(4-methylphenyl)-4,5-dihydro-1H-pyrazol-1-yl]ethan-1-one], the IC50 with A-549 cells [1] (Homo sapiens, A549) was above 100 µM; in the test with H226 cells (Homo sapiens, NCI-H226), 86.7 ± 0.92 µM; in the test on H460 cells (Homo sapiens, NCI-H460) it was 24.5 ± 1.74 µM; in the test on HEK293 cells (Homo sapiens, HEK293, 72 h) it was above 100 µM.
Turning to `COc1ccccc1C1=NN(C(C)=O)C(c2ccc3c(c2)OCO3)C1` (centres unmarked) [PCH-4, 1-[5-(2H-1,3-benzodioxol-5-yl)-3-(2-methoxyphenyl)-4,5-dihydro-1H-pyrazol-1-yl]ethan-1-one], the IC50 in the test on A-549 cells [1] (Homo sapiens, A549) is above 100 µM; in the test on H226 cells (Homo sapiens, NCI-H226) it was 86.7 ± 4.7 µM; with H460 cells (Homo sapiens, NCI-H460), 63.4 ± 3.34 µM; with HEK293 cells (Homo sapiens, HEK293, 72 h) it was above 100 µM.
Take `CC(=O)N1N=C(c2ccc3c(c2)OCO3)CC1c1ccc2c(c1)OCO2` (centres unmarked) [PCH-5, 1-[3,5-bis(2H-1,3-benzodioxol-5-yl)-4,5-dihydro-1H-pyrazol-1-yl]ethan-1-one]: the half-inhibitory concentration (IC50) worked out at 60.9 ± 4.3 µM in the test with A-549 cells [1] (Homo sapiens, A549); 58 ± 2.56 µM in the test with H226 cells (Homo sapiens, NCI-H226); 38.8 ± 1.77 µM with H460 cells (Homo sapiens, NCI-H460); 47 ± 3.18 µM in the test on HEK293 cells (Homo sapiens, HEK293, 72 h).
Turning to `CC(=O)N1N=C(c2ccc(OC(F)(F)F)cc2)CC1c1ccc2c(c1)OCO2` (centres unmarked) [PCH-6, 1-{5-(2H-1,3-benzodioxol-5-yl)-3-[4-(trifluoromethoxy)phenyl]-4,5-dihydro-1H-pyrazol-1-yl}ethan-1-one], the half-maximal inhibitory concentration (IC50) amounted to 21.5 ± 4.26 µM with A-549 cells [1] (Homo sapiens, A549); 24.4 ± 2.13 µM in the test with H226 cells (Homo sapiens, NCI-H226); 18.1 ± 2.13 µM with H460 cells (Homo sapiens, NCI-H460); 42.9 ± 1.23 µM in the test on HEK293 cells (Homo sapiens, HEK293, 72 h).
As to `COc1ccc(C2=NN(C(C)=O)C(c3ccc4c(c3)CCO4)C2)cc1` (centres unmarked) [PCH-7, 1-[5-(2,3-dihydro-1-benzofuran-5-yl)-3-(4-methoxyphenyl)-4,5-dihydro-1H-pyrazol-1-yl]ethan-1-one], the IC50 was above 100 µM in the test with A-549 cells [1] (Homo sapiens, A549); 41.5 ± 1.12 µM in the test with H226 cells (Homo sapiens, NCI-H226); 30.2 ± 2.14 µM in the test on H460 cells (Homo sapiens, NCI-H460); above 100 µM with HEK293 cells (Homo sapiens, HEK293, 72 h).
Regarding `COc1ccc(C2=NN(C(C)=O)C(c3cc4c(cc3OC)OCO4)C2)cc1` (centres unmarked) [PCH-8, 1-[5-(6-methoxy-2H-1,3-benzodioxol-5-yl)-3-(4-methoxyphenyl)-4,5-dihydro-1H-pyrazol-1-yl]ethan-1-one], the half-maximal inhibitory concentration (IC50) in the test on A-549 cells [1] (Homo sapiens, A549) was above 100 µM; with H226 cells (Homo sapiens, NCI-H226), 61.1 ± 3.12 µM; with H460 cells (Homo sapiens, NCI-H460), 30.2 ± 2.14 µM; in the test with HEK293 cells (Homo sapiens, HEK293, 72 h), above 100 µM.
`COc1cc2c(cc1C1=NN(C(C)=O)C(c3ccc(O)cc3)C1)SCO2` (centres unmarked) [PCH-9, 1-[5-(4-hydroxyphenyl)-3-(6-methoxy-2H-1,3-benzoxathiol-5-yl)-4,5-dihydro-1H-pyrazol-1-yl]ethan-1-one]: the concentration for half-maximal inhibition (IC50) in the test on A-549 cells [1] (Homo sapiens, A549) was determined as 79.5 ± 4.97 µM; with H226 cells (Homo sapiens, NCI-H226) it was 38.4 ± 3.53 µM; with H460 cells (Homo sapiens, NCI-H460) it was 43.8 ± 3.97 µM; with HEK293 cells (Homo sapiens, HEK293, 72 h) it was 34.4 ± 2.01 µM.
Regarding `CC(=O)O[C@H]1C(=O)[C@@]2(C)[C@H]([C@H](OC(=O)c3ccccc3)[C@]3(O)C[C@H](OC(=O)[C@H](O)[C@@H](NC(=O)c4ccccc4)c4ccccc4)C(C)=C1C3(C)C)[C@]1(OC(C)=O)CO[C@@H]1C[C@@H]2O` [Paclitaxel], in the test with tubulin, the “effect on tubulin polymerization kinetics” value was “accelerated the nucleation phase and increased the total mass of tubulin polymer”.
In the case of `CC[C@]1(O)C[C@H]2CN(CCc3c([nH]c4ccccc34)[C@@](C(=O)OC)(c3cc4c(cc3OC)N(C=O)[C@H]3[C@@](O)(C(=O)OC)[C@H](OC(C)=O)[C@]5(CC)C=CCN6CC[C@]43[C@@H]65)C2)C1` [Vincristine, vincristine], in the test on tubulin, the “effect on tubulin polymerization kinetics” value was “extended the nucleation time and reduced the total mass of tubulin polymer”.
